# From EPA's ToxValDB 9.5 (doi:10.2903/j.efsa.2005.26r)
# How the values were obtained:
# Apis mellifera = conditions: acute; duration: 48 hours; oral; unspecified; mortality
# Daphnia magna = conditions: chronic/long-term; duration: 21 days; reproduction
# Oncorhynchus mykiss = conditions: acute; duration: 96 hours; mortality
# Pimephales promelas = conditions: chronic/long-term; duration: 28 days
# Tagia sp. = conditions: acute; duration: 14 days; mortality
# Aphidius rhopalosiphi = assay: LR50; higher = less toxic; conditions: acute; duration: 48 hours; mortality
smiles,measurement,setting,value
CNC(=O)ON=C(SC)C(=O)N(C)C [Oxamyl],LD50,"Anas platyrhynchos; acute, oral, unspecified, mortality",3.16 mg/kg
same,NOEC,Anas platyrhynchos; reproductive,50 mg/kg
same,LC50,"Anas platyrhynchos; short-term, oral, feed, mortality",340 mg/kg
same,LD50,Apis mellifera,0.38 µg/piece
same,LC50,"Colinus virginianus; acute, oral, diet, mortality",766 mg/kg
same,LD50,"Colinus virginianus; acute, oral, mortality",9.5 mg/kg
same,NOEC,Colinus virginianus; reproduction developmental,10 mg/kg-day
same,NOEC,Daphnia magna,0.0268 mg/L
same,LC50,Oncorhynchus mykiss,3.13 µg/mL
same,NOEC,Pimephales promelas,0.5 mg/L
same,NOAEL,"Rattus norvegicus; acute, oral, gavage, M/F, clinical signs",0.1 mg/kg-day
same,LD50,"Rattus norvegicus; acute, oral, mortality",2.5 mg/kg
same,NOEC,Rattus norvegicus; reproduction developmental,1.43 mg/kg-day
same,LC50,Tagia sp.,112 mg/kg
same,LR50,Aphidius rhopalosiphi,0.03 g/ha
